# Measured values reported in patent US8551937B2, “Peptide having an extending action for half-life of object peptide in plasma” (priority 2008, dated 2013).
# Where a SMILES comes first, the peptide text is derived from it. Bridges are numbered along the chain shown (N, C = ends).
# How the values were obtained:
# [1] = CNP immunoreactivity concentration in plasma after administration to rats (competitive RIA), pharmacokinetic parameters (Example 2); type: in vivo, rat; conditions: rat, plasma, 0.1 mg/kg, male rats, N = 3, mean ± SD; for half-life: read-out: T½; for C0: extrapolated value
# Method: Pharmacokinetic parameters were calculated from the resulting changes in immunoreactivity concentrations in plasma. At that time, WinNonlin Professional Ver. 4.0.1 (manufactured by Pharsight Corporation, U.S.A.) was used as the analytical software. Method for the calculation of each parameter is mentioned as follows.
# Concentration at time 0 (C0; extrapolated value, ng/mL), area under the curve for concentration in plasma vs. time (AUC; ng.min/mL) and quenching half-life (T½; minute(s)) were calculated as follows. C0 was calculated as a value at time by means of extrapolation from the changes in immunoreactivity concentration in plasma at each blood collection period. AUC was calculated by a trapezoidal method using the immunoreactivity concentrations in plasma at all measuring points (t) and an extrapolated value until the infinitive time was determined. T½ was calculated by means of a least-squares method from the inclination of a straight line connecting several points in a disappearing phase of the immunoreactivity concentration in plasma. In the case of a subcutaneous administration, C0 was not determined but the maximum concentration in plasma (Cmax; ng/mL) and the time reaching the maximum concentration in plasma (Tmax; min) were determined.
# Changes in CNP immunoreactivity concentration in plasma of native CNP-22 and chimeric peptide (chimeric CNP) where a half-life-extension peptide was added to CNP were investigated.
# The experiment was conducted in the same manner as in Example 1 that rats where polyethylene tube was previously inserted into thigh artery were used under an anesthetizing condition with Nembutal and male SD strain rats of 7 weeks age (purchased from Nippon Charles River) were used where one group comprised 3 rats. […] At that time, a rabbit polyclonal antibody (#2) recognizing a ring part of native CNP-22 was used as an antibody and ^125I-[Tyr^0] CNP was used as a labeling compound. Pharmacokinetic analysis was carried out by the same method as in Example 1.
# [2] = molecular target: T1, neutral endopeptidase (NEP) (Homo sapiens, UniProt P08473); assay: Resistance to peptidase: stability to hNEP (HPLC residual rate); type: in vitro ADME; conditions: human, isolated enzyme neprilysin, pH 6.5
# T1 construct: purchased R&D Systems, Inc., U.S.A
# T1 sequence (P08473 whole entry): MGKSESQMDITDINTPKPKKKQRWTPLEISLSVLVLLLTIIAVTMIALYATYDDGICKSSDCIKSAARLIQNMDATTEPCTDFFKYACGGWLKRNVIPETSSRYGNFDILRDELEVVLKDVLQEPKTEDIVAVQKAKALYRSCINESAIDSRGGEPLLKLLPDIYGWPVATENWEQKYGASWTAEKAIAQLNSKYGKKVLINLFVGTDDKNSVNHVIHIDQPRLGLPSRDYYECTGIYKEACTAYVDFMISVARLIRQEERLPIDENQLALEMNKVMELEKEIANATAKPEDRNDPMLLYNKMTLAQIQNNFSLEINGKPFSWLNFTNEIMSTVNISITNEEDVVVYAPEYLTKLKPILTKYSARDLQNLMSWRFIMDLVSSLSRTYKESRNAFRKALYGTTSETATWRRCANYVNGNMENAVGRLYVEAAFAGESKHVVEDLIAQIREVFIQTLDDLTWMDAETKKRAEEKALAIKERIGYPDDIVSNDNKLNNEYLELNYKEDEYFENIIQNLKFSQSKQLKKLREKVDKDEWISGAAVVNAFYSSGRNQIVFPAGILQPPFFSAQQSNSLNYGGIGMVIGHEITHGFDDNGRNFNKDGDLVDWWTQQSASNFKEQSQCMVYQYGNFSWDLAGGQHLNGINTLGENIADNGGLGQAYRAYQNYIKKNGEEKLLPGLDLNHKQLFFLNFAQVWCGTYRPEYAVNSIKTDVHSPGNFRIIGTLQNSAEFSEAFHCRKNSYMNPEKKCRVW
# Method: The experiment was conducted in N=2 for each sample. Native CNP-22, chimeric CNP (A, B) (structure mentioned already; final concentration: 0.5 μg/mL) and 100 μL of reaction solution (medium: 20 mM MES, pH 6.5) of human type recombinant neutral endopeptidase (hNEP, manufactured by R&D Systems, Inc., U.S.A.) were prepared. […] Distilled water (100 μL) was added to the sample after boiling followed by well mixing and 50 μL thereof was analyzed in a water-acetonitrile system using a high-performance liquid chromatography system LC-10A (manufactured by Shimadzu). The analytical data were analyzed by a Chromato-Pack (CRA-10A, manufactured by Shimadzu) and area of the peak zone of unchanged substance was calculated. The area of average zone of unchanged substance when made to react at 37° C. was divided by the area of average zone of the boiled sample to calculate the residual rate of the unchanged substance after 1 hour.
# [3] = molecular target: T2, NEP (Rattus norvegicus, UniProt P07861); assay: NEP resistance in vivo: influence of NEP inhibitor on pharmacokinetic parameters after intravenous administration; conditions: rat, in vivo
# T2 construct: male SD strain rats of 7 weeks age (Nippon Charles River; body weight: ca. 250 g) were used; from tissue; host or cells: whole animal: male SD rats (Nippon Charles River), in vivo
# T2 sequence (P07861 1-750): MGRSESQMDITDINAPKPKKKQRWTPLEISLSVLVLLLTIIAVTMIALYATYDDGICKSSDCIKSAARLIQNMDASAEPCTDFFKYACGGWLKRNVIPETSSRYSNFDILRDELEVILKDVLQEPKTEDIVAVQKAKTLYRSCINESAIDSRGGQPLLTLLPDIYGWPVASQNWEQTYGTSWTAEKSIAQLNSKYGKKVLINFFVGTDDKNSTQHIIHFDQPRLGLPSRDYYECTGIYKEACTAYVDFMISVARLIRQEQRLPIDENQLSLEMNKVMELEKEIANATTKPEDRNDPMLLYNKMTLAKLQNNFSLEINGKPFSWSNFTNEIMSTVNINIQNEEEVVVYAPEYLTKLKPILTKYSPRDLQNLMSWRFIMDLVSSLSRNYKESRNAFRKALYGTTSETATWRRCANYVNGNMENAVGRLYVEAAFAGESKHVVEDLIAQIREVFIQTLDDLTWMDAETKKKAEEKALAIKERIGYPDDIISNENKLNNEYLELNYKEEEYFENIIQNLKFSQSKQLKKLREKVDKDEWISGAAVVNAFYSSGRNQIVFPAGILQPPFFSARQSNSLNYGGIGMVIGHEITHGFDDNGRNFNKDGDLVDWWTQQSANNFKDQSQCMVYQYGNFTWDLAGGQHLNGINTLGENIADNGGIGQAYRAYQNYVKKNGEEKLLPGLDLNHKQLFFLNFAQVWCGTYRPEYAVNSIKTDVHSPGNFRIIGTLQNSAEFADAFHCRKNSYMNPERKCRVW
# Method: Further, NEP resistance in vivo of the native CNP-22 and chimeric CNP (B) was evaluated using the effect by the joint use with an NEP inhibitor affecting on changes in CNP immunoreactivity concentration in plasma after the intravenous administration as an index. This test was also carried out using rats into which a polyethylene tube (PE-50, manufactured by Clay […].) was inserted into thigh artery for collection of blood and rats into which a polyethylene tube (PE-10, manufactured by Clay […].) was inserted into thigh vein for administration of an NEP inhibitor under an anesthetizing condition using Nembutal. As a test system, male SD strain rats of 7 weeks age (Nippon Charles River; body weight: ca. 250 g) were used for the experiment where one group comprised 3 rats. […] Time for the administration was from 10 minutes before the administration of the native CNP-22 or the chimeric CNP (B) to completion of blood collection which was 60 minutes after the administration. The native CNP-22 and the chimeric CNP (B) each was administered into the tail vein in a dose of 20 μg/kg and the blood before starting the administration of NEP inhibitor (-10 minutes), before the administration of CNP (0 minute) and until after 60 minutes from the administration was collected by a thigh artery cannula. After a stabilizer and an anticoagulant were added to the collected blood, it was centrifuged to give plasma and the immunoreactivity concentration in the plasma was measured by the above-mentioned competitive RIA. The pharmacokinetic analysis was carried out by the same method as in Example 1.
# [4] = in vivo; conditions: male, SD, rat, iv, 20 nmol/kg
"AUC(0-inf) ([1]; sc, subcutaneous) [ng·h/mL]","Cmax ([1]; sc, subcutaneous) [ng/mL]","Tmax ([1]; sc, subcutaneous) [min]","half-life ([1]; sc, subcutaneous) [min]",AUC(0-inf) ([1]; intravenous) [ng·h/mL],C0 ([1]; intravenous) [ng/mL],half-life ([1]; intravenous) [min],"remaining at 1 h, 0.5 μg/mL [2] [%]","AUC0→∞ ([3]; male, SD, iv, 0.02 mg/kg) [ng·min/mL]","C0 ([3]; male, SD, iv, 0.02 mg/kg) [ng/mL]","T½ ([3]; male, SD, iv, 0.02 mg/kg) [min]","AUC(0-inf) ([3]; male, SD, iv, 0.02 mg/kg, AUC0→∞) [ng·h/mL]","C0 ([3]; male, SD, iv, 0.02 mg/kg, C0) [ng/mL]","half-life ([3]; male, SD, iv, 0.02 mg/kg, T½) [min]",decomposition by NEP in the body of the rat [3],Compound,half-life [4] [min]
24.9,27.9 ± 2.7,13.3,20.7 ± 7.5,107,1030 ± 358,21.7 ± 6.1,84.3,–,–,–,–,–,–,–,CC[C@H](C)[C@@H]1NC(=O)[C@H](CCCNC(=N)N)NC(=O)[C@H](CC(=O)O)NC(=O)[C@H](CC(C)C)NC(=O)[C@H](CCCCN)NC(=O)[C@H](CC(C)C)NC(=O)CNC(=O)[C@H](Cc2ccccc2)NC(=O)[C@@H](NC(=O)[C@@H](NC(=O)[C@H](CCC(N)=O)NC(=O)[C@H](CCC(N)=O)NC(=O)[C@H](CCCNC(=N)N)NC(=O)[C@H](CCCCN)NC(=O)[C@H](CCC(=O)O)NC(=O)[C@H](CO)NC(=O)[C@H](CCCCN)NC(=O)[C@H](CCCCN)NC(=O)[C@@H]2CCCN2C(=O)[C@@H]2CCCN2C(=O)[C@H](C)NC(=O)[C@H](CCCCN)NC(=O)[C@H](CC(C)C)NC(=O)[C@H](CCC(N)=O)NC(=O)[C@@H]2CCCN2C(=O)[C@@H](N)CCCNC(=N)N)C(C)C)CSSC[C@@H](C(=O)O)NC(=O)CNC(=O)[C@H](CC(C)C)NC(=O)CNC(=O)[C@H](CO)NC(=O)[C@H](CCSC)NC(=O)[C@H](CO)NC(=O)CNC1=O [Chimeric CNP (A)] (H-RPQLKAPPKKSEKRQQVCFGLKLDRIGSMSGLGC-OH; disulfide 18-34; N-terminus and C-terminus assumed),–
28.1,32.8 ± 7.9,10,24 ± 9.7,153,1470 ± 749,36.2 ± 2.3,83.8,1342 ± 168,203 ± 71,12.7 ± 1.2,24.5,253 ± 15,14.9 ± 3.1,hardly decomposed by NEP,CC[C@H](C)[C@@H]1NC(=O)[C@H](CCCNC(=N)N)NC(=O)[C@H](CC(=O)O)NC(=O)[C@H](CC(C)C)NC(=O)[C@H](CCCCN)NC(=O)[C@H](CC(C)C)NC(=O)CNC(=O)[C@H](Cc2ccccc2)NC(=O)[C@@H](N)CSSC[C@@H](C(=O)N[C@H](C(=O)N[C@@H](CCC(N)=O)C(=O)N[C@@H](CCC(N)=O)C(=O)N[C@@H](CCCNC(=N)N)C(=O)N[C@@H](CCCCN)C(=O)N[C@@H](CCC(=O)O)C(=O)N[C@@H](CO)C(=O)N[C@@H](CCCCN)C(=O)N[C@@H](CCCCN)C(=O)N2CCC[C@H]2C(=O)N2CCC[C@H]2C(=O)N[C@@H](C)C(=O)N[C@@H](CCCCN)C(=O)N[C@@H](CC(C)C)C(=O)N[C@@H](CCC(N)=O)C(=O)N2CCC[C@H]2C(=O)N[C@@H](CCCNC(=N)N)C(=O)O)C(C)C)NC(=O)CNC(=O)[C@H](CC(C)C)NC(=O)CNC(=O)[C@H](CO)NC(=O)[C@H](CCSC)NC(=O)[C@H](CO)NC(=O)CNC1=O [Chimeric CNP (B)] (H-CFGLKLDRIGSMSGLGCVQQRKESKKPPAKLQPR-OH; disulfide 1-17; N-terminus and C-terminus assumed),–
–,–,–,–,–,–,–,–,–,–,–,–,–,–,–,CC[C@H](C)[C@@H]1NC(=O)[C@H](CCCNC(=N)N)NC(=O)[C@H](CC(=O)O)NC(=O)[C@H](CC(C)C)NC(=O)[C@H](CCCCN)NC(=O)[C@H](CC(C)C)NC(=O)CNC(=O)[C@H](Cc2ccccc2)NC(=O)[C@@H](NC(=O)CNC(=O)[C@H](CCCCN)NC(=O)[C@H](CO)NC(=O)[C@H](CC(C)C)NC(=O)CN)CSSC[C@@H](C(=O)N[C@H](C(=O)N[C@@H](CCC(N)=O)C(=O)N[C@@H](CCC(N)=O)C(=O)N[C@@H](CCCNC(=N)N)C(=O)N[C@@H](CCCCN)C(=O)N[C@@H](CC(=O)O)C(=O)N[C@@H](CO)C(=O)N[C@@H](CCCCN)C(=O)N[C@@H](CCCCN)C(=O)N2CCC[C@H]2C(=O)N2CCC[C@H]2C(=O)N[C@@H](C)C(=O)N[C@@H](CCCCN)C(=O)N[C@@H](CC(C)C)C(=O)N[C@@H](CCC(N)=O)C(=O)N2CCC[C@H]2C(=O)N[C@@H](CCCNC(=N)N)C(=O)O)C(C)C)NC(=O)CNC(=O)[C@H](CC(C)C)NC(=O)CNC(=O)[C@H](CO)NC(=O)[C@H](CCSC)NC(=O)[C@H](CO)NC(=O)CNC1=O [Chimeric CNP (J)] (H-GLSKGCFGLKLDRIGSMSGLGCVQQRKDSKKPPAKLQPR-OH; disulfide 6-22; N-terminus and C-terminus assumed),31.2
–,–,–,–,–,–,–,–,–,–,–,–,–,–,–,CC[C@H](C)[C@@H]1NC(=O)[C@H](CCCNC(=N)N)NC(=O)[C@H](CC(=O)O)NC(=O)[C@H](CC(C)C)NC(=O)[C@H](CCCCN)NC(=O)[C@H](CC(C)C)NC(=O)CNC(=O)[C@H](Cc2ccccc2)NC(=O)[C@@H](N)CSSC[C@@H](C(=O)N[C@@H](C)C(=O)NCC(=O)N[C@@H](CO)C(=O)N[C@H](C(=O)N[C@@H](CC(=O)O)C(=O)N[C@@H](Cc2c[nH]cn2)C(=O)N[C@@H](CCCCN)C(=O)NCC(=O)N[C@@H](CCCCN)C(=O)N[C@@H](CCC(N)=O)C(=O)N[C@@H](CCCNC(=N)N)C(=O)N[C@@H](CCCCN)C(=O)N[C@H](C(=O)N[C@H](C(=O)N[C@@H](CC(=O)O)C(=O)N[C@@H](Cc2c[nH]cn2)C(=O)N2CCC[C@H]2C(=O)N[C@@H](CCCCN)C(=O)N[C@@H](CCCNC(=N)N)C(=O)O)C(C)C)C(C)C)C(C)C)NC(=O)CNC(=O)[C@H](CC(C)C)NC(=O)CNC(=O)[C@H](CO)NC(=O)[C@H](CCSC)NC(=O)[C@H](CO)NC(=O)CNC1=O [Chimeric CNP (K)] (H-CFGLKLDRIGSMSGLGCAGSVDHKGKQRKVVDHPKR-OH; disulfide 1-17; N-terminus and C-terminus assumed),18
